In patent publication US20260234144A1 (TAY THERAPEUTICS LIMITED, priority 2023, published 2026):

Test system: R223X stop codon in the mutated luciferase gene, ADXC8 luciferase reporter cell line
Assay: cells
Format: cell-based
Conditions: ADXC8 cells, 24 hours; for Emax / EC (100% of 200 uM G418 response): 24 h; for Emax: read-out: Fold Over Control, maximum fold response relative to 200 μM G418; for EC (100% of 200 uM G418 response): read-out: pC100%, negative logarithm of the concentration giving the same response as 200 μM G418; for pC100%: negative logarithm of the concentration giving the same response as 200 μM G418

SMILES | Emax [%] | EC (100% of 200 uM G418 response) [µM] | pC100%
CNc1nc(N[C@H]2CN(C)C[C@H]2O)nc2nc(C)cc(C)c12 [Example 359] | 100 to 3000 | 10 to 100 | –
Cc1cc(C)c2c(N)nc(NC3CCNC(C)C3)nc2n1 (stereo not drawn) [Example 175] | 100 to 3000 | 1 to 10 | –
CNc1nc(N[C@@H]2C[C@H](O)CN(C)C2)nc2nc(C)cc(C)c12 [Example 603] | 100 to 3000 | 1 to 10 | –
Cc1cc(C)c2c(NCCN)nc(NC3CCN(C)CC3)nc2n1 [Example 315] | 0 to 100 | > 31.6 | –
CNc1nc(N[C@H]2CNC[C@@H]2F)nc2nc(C)c3c(c12)CCC3 [Example 346] | 100 to 3000 | 0.1 to 1 | –
Cc1cc(C)c2c(N)nc(N[C@@H]3CCNC[C@@H]3O)nc2n1 [Example 573] | – | 1 to 10 | –
CN1CCC(Nc2nc(N(C)C)c3cccnc3n2)CC1 [Example 40, N^4,N^4-dimethyl-N^2-(1-methylpiperidin-4-yl)pyrido[2,3-d]pyrimidine-2,4-diamine] | 100 to 3000 | 10 to 100 | –
CCNc1nc(N[C@H]2CN(C)C[C@@H]2O)nc2nc(C)cc(C)c12 [Example 391] | 100 to 3000 | 0.1 to 1 | –
CN1CCC(Nc2nc(N)c3cc(C(F)(F)F)cnc3n2)CC1 [Example 19, N^2-(1-methylpiperidin-4-yl)-6-(trifluoromethyl)pyrido[2,3-d]pyrimidine-2,4-diamine] | 0 to 100 | > 100 | –
Cc1c2c(nc3nc(NC4CCN(Cc5cccnc5O)CC4)nc(N)c13)CCC2 [Example 664] | 0 to 100 | > 31.6 | –
Cc1cc(C)c2c(N)nc(NCCN3CCC3)nc2n1 [Example 184] | 100 to 3000 | 10 to 100 | –
Cc1cc(C)c2c(N)nc(NC3CCN(C4CC4)CC3)nc2n1 [Example 146] | 100 to 3000 | 1 to 10 | –
Cc1cc(C)c2c(N)nc(NC3CCNCC3)nc2n1 [Example 279] | 100 to 3000 | 1 to 10 | –
CNc1nc(NC2CNCC2C(F)F)nc2nc(C)cc(C)c12 (single isomer, unassigned) [Example 430] | – | – | ++ (pC100% > 5.0 ≤ 6.0)
CNc1nc(N[C@@H]2C[C@@H](C)N(C)C2)nc2nc(C)cc(C)c12 [Example 375] | 100 to 3000 | 0.1 to 1 | –
Cc1cc(C)c2c(N)nc(NC3CCN(Cc4cnco4)CC3)nc2n1 [Example 474] | 100 to 3000 | 10 to 100 | –
Cc1cc(C)c2c(N)nc(N[C@H]3CN[C@@H](C)C3)nc2n1 [Example 350] | 100 to 3000 | 1 to 10 | –
Cc1cc(C)c2c(N)nc(NC3CC4CCC[C@H](C3)N4)nc2n1 (stereo partly drawn) [Example 196] | 100 to 3000 | 1 to 10 | –
CNc1nc(NC2CCN(Cc3ccccc3O)CC2)nc2nc(C)cc(C)c12 [Example 579] | 100 to 3000 | 0.1 to 1 | –
Cc1cc(C)c2c(N)nc(NC3CCC(N(C)C)CC3)nc2n1 (stereo not drawn) [Example 204] | 100 to 3000 | 1 to 10 | –
Cc1cc(C)c2c(N)nc(N[C@H]3CCCNC3)nc2n1 [Example 352] | 100 to 3000 | 10 to 100 | –

SMILES | Emax [%] | EC (100% of 200 uM G418 response) [µM] | pC100%
CNc1cc(N[C@H]2CN(C)C[C@@H]2F)nc2nc3c(c(C)c12)CCC3 [Example 634] | 100 to 3000 | 0.1 to 1 | –
CNc1nc(N[C@H]2CN(C)C[C@@H]2F)nc2nc(C)c3c(c12)CCC3 [Example 365] | 100 to 3000 | 0.1 to 1 | –
Cc1cc(C)c2c(N)nc(NCC3CNC3)nc2n1 [Example 199] | 0 to 100 | > 31.6 | –
Cc1cc(C)c2c(N)nc(NC3CCN(Cc4cccc(C(=O)N(C)C)c4)CC3)nc2n1 [Example 462] | 0 to 100 | > 31.6 | –
CNc1cc(N[C@H]2CNC[C@H]2O)nc2nc3c(c(C)c12)CCC3 [Example 618] | – | 1 to 10 | –
CNc1nc(N[C@H]2CNC[C@H]2OC)nc2nc(C)cc(C)c12 [Example 370] | 100 to 3000 | 1 to 10 | –
CN1CCC(Nc2nc(N)c3ccc(-c4ccc(N)cc4)nc3n2)CC1 [Example 68] | 100 to 3000 | 10 to 100 | –
Cc1ccc(CN2CCC(Nc3nc(N)c4c(C)cc(C)nc4n3)CC2)c(O)c1 [Example 540] | 100 to 3000 | 1 to 10 | –
CNc1nc(N[C@H]2CNC[C@@H]2O)nc2nc(C)cc(C)c12 [Example 325] | – | 1 to 10 | –
Cc1c2c(nc3nc(N[C@H]4CN(C)C[C@@H]4O)nc(N(C)C)c13)CCC2 [Example 547] | 100 to 3000 | 10 to 100 | –
CN1CCC(Nc2nc(N)c3ccc(-c4ccc(S(C)(=O)=O)cc4)nc3n2)CC1 [Example 54] | 0 to 100 | > 100 | –
CN1CCC(Nc2nc(N)c3ccc(-c4ccncc4)nc3n2)CC1 [Example 111] | – | 10 to 100 | –
COc1ccc(-c2ccc3c(N)nc(NC4CCN(C)CC4)nc3n2)cc1 [Example 24, 7-(4-methoxyphenyl)-N^2-(1-methylpiperidin-4-yl)pyrido[2,3-d]pyrimidine-2,4-diamine] | – | 1 to 10 | –
CNc1nc(NC2C3CNC2C3)nc2nc(C)cc(C)c12 (single isomer, unassigned) [Example 446] | – | – | ++ (pC100% > 5.0 ≤ 6.0)
Cc1cc(C)c2c(N)nc(NC3CCN(Cc4cc[nH]n4)CC3)nc2n1 [Example 469] | 100 to 3000 | 10 to 100 | –
Cc1c2c(nc3nc(NC4CCN(Cc5ccc(S(N)(=O)=O)cc5)CC4)nc(N)c13)CCC2 [Example 667] | 100 to 3000 | 1 to 10 | –
Cc1cc(C)c2c(N)nc(NCCN3Cc4ccccc4C3)nc2n1 [Example 37, N^2-(2-(isoindolin-2-yl)ethyl)-5,7-dimethylpyrido[2,3-d]pyrimidine-2,4-diamine] | – | 10 to 100 | –
CC(O)c1ccnc2nc(NC3CCN(C)CC3)nc(N)c12 (stereo not drawn) [Example 308] | 0 to 100 | > 100 | –
CNc1nc(N[C@H]2CNC[C@H]2F)nc2nc(C)c3c(c12)CCC3 [Example 347] | – | 0.1 to 1 | –
Cc1cc(C)c2c(N)nc(NCCN3CC(C)OC(C)C3)nc2n1 (stereo not drawn) [Example 151] | 0 to 100 | > 31.6 | –
CNc1nc(NC2CNCC23COC3)nc2nc(C)cc(C)c12 (stereo not drawn) [Example 410] | 0 to 100 | > 31.6 | –

SMILES | Emax [%] | EC (100% of 200 uM G418 response) [µM] | pC100%
CNc1cc(N[C@H]2CN(C)C[C@@H]2OC)nc2nc3c(c(C)c12)CCC3 [Example 421] | 100 to 3000 | 0.1 to 1 | –
Cc1cc(C)c2c(NC(C)C)nc(NC3CCN(C)CC3)nc2n1 [Example 264] | 100 to 3000 | 1 to 10 | –
Cc1cc(C)c2c(N)nc(N[C@@H]3CN4CCC3CC4)nc2n1 [Example 398] | 0 to 100 | > 31.6 | –
Cc1cc(C)c2c(N)nc(NC3CCN(Cc4cccc(C)c4O)CC3)nc2n1 [Example 539] | 100 to 3000 | 0.1 to 1 | –
CNc1nc(N[C@H]2CNC[C@@H]2O)nc2nc3c(c(C)c12)CCC3 [Example 341] | 100 to 3000 | 0.01 to 0.1 | –
Cc1cc(C)c2c(N)nc(NC3CCN(Cc4cc(Cl)ccc4O)CC3)nc2n1 [Example 542] | 100 to 3000 | 1 to 10 | –
Cc1cc(C)c2c(NCCS(C)(=O)=O)nc(NC3CCN(C)CC3)nc2n1 [Example 356] | 0 to 100 | > 31.6 | –
CC(=O)c1cnc2nc(NC3CCN(C)CC3)nc(N)c2c1 [Example 125, 1-{4-amino-2-[(1-methylpiperidin-4-yl)amino]pyrido[2,3-d]pyrimidin-6-yl}ethenone] | 0 to 100 | > 100 | –
Cc1cc(C2CCC2)nc2nc(NC3CCN(C)CC3)nc(N)c12 [Example 521, 7-cyclobutyl-5-methyl-N^2-(1-methylpiperidin-4-yl)pyrido[2,3-d]pyrimidine-2,4-diamine] | – | 1 to 10 | –
Cc1cc(C)c2c(N)nc(N[C@@H]3CCN(CCO)C3)nc2n1 [Example 224, (R)-2-(3-((4-amino-5,7-dimethylpyrido[2,3-d]pyrimidin-2-yl)amino)pyrrolidin-1-yl)ethan-1-ol] | 100 to 3000 | 10 to 100 | –
Cc1nc2nc(NC3CCN(Cc4ccc(C#N)cc4O)CC3)nc(N)c2c2c1CCC2 [Example 534] | 100 to 3000 | 0.1 to 1 | –
Cc1cc(C)c2c(N)nc(NCCCN3CC4(CCOC4)C3)nc2n1 [Example 187] | 100 to 3000 | 10 to 100 | –
CNc1nc(N[C@H]2CN[C@H](C(F)F)C2)nc2nc(C)cc(C)c12 [Example 407] | – | 1 to 10 | –
CNc1nc(N[C@H]2CN(C)C[C@H]2F)nc2nc(C)c(Cl)c(C)c12 [Example 614] | – | 1 to 10 | –
Cc1c2ccccc2nc2nc(NC3CCN(C)CC3)nc(N)c12 [Example 10, 5-methyl-N^2-(1-methylpiperidin-4-yl)pyrimido[4,5-b]quinoline-2,4-diamine] | 100 to 3000 | 1 to 10 | –
CNc1cc(NC2CCN(C)CC2)nc2nc(C)cc(C)c12 [Example 261, N^4,5,7-trimethyl-N^2-(1-methylpiperidin-4-yl)-1,8-naphthyridine-2,4-diamine] | 100 to 3000 | 1 to 10 | –
CNc1nc(N[C@H]2CNC[C@@H](O)C2)nc2nc(C)cc(C)c12 [Example 610] | – | 1 to 10 | –
Cc1cc(C)c2c(N)nc(NC3CCN(Cc4cccc5nc[nH]c45)CC3)nc2n1 [Example 660] | 100 to 3000 | 1 to 10 | –
Cc1cc(C)c2c(N)nc(NC3CCN(Cc4nccs4)CC3)nc2n1 [Example 463] | 100 to 3000 | 1 to 10 | –
CNc1nc(N[C@@H]2CCN(C)C2)nc2nc(C)cc(C)c12 [Example 327] | 100 to 3000 | 1 to 10 | –
